The source of these data is ChEMBL document CHEMBL1201862, “PubChem BioAssay data set” (2004).

Active and inactive are the calls of the source.

The target of assay [1] is Latent membrane protein 1 (Human herpesvirus 4 (strain B95-8), UniProt P03230). The assay is described as follows: TES1-eGFP NF-kB reporter inhibition versus Tet-On dsRED, dose response, selectivity assay for LMP1 NF-kB inhibitor project, imaging, HEK293T, dual-color eGFP/dsRED, cherry-picks (AID 588398). It is filed as functional, cell-based.
Chain of Latent membrane protein 1 (P03230 whole entry): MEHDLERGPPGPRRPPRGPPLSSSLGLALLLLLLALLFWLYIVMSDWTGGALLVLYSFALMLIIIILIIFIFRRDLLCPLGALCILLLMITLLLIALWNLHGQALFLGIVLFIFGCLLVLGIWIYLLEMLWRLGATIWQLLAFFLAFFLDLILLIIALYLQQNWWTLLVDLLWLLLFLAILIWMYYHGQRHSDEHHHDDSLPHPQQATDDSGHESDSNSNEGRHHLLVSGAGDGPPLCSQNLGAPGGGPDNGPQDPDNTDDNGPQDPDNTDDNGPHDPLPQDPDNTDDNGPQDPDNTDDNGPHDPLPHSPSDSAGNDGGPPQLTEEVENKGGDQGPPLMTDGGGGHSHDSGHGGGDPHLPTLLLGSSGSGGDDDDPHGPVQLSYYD
Assay [2] is described as follows: inhibitors of SNCA 5'UTR-driven reporter translation, confirmation, H4 neuroglioma cells, luminescence (AID 1988). In kind it is functional, cell-based.
Assay [3] is described as follows: insulin promoter down-regulators in MIN6 cells, imaging, high-content screening, mouse beta cells (AID 1628). In kind it is functional.
For a further assay, the system named is HEK293. The assay is described as follows: inhibitors of LMP1-driven NF-kB reporter, dose response, cell-based, HEK293, luciferase, cherry-pick (AID 588343). Particulars: Homo sapiens. In kind it is functional.
Assay [4] in a line: inhibitors of firefly luciferase expression or activity, dose response, H4 neuroglioma cells, luminescence (AID 1990). In kind it is functional, cell-based.
Assay [5] is described as follows: Luminescence Cell-Based Dose Response HTS to Identify Inhibitors of 5'UTR Stem-Loop Driven Prion Protein mRNA Translation in H4 Neuroglioblastoma Cells. [Related pubchem assays: 1827 (Project Summary), 1813 (Primary HTS)]. In kind it is functional.
Assay [6] in a line: cytotoxicity in MIN6 insulinoma cells, dose response, cytotoxicity control, cell-based, mouse insulinoma (AID 2122).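 Further: confirmatory high-throughput counterscreen run to flag cytotoxic compounds; mouse MIN-6 beta cells carrying an insulin promoter eGFP reporter.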 It is filed as functional.
A further assay concerns INS1. As to the kind of experiment: beta cell apoptosis inhibitors, cytokine rescue, dose response, luminescence, retest (AID 449756).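 Further: cell death triggered by IL-1 beta plus TNF-alpha plus IFN-gamma mixture; protective hits raise ATP signal compared with cytokine alone wells.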 As to conditions: Rattus norvegicus. In kind it is functional, cell-based.
Assay [7] deals with T1, Heat shock factor protein 1 (Mus musculus, UniProt P38532).
T1 sequence (P38532 whole entry): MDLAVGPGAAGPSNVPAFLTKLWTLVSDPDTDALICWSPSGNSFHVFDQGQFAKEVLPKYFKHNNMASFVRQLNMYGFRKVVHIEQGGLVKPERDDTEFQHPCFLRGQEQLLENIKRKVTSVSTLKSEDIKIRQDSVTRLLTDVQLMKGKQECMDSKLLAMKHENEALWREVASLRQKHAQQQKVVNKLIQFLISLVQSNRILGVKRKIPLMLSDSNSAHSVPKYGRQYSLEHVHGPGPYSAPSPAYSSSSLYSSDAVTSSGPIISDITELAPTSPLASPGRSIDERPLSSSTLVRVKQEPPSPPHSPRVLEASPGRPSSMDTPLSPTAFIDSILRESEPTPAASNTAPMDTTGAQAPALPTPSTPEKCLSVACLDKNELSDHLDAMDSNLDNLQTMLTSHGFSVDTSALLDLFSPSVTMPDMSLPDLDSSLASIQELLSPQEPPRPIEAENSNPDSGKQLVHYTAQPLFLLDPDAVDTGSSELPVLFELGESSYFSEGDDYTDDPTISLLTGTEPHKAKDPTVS
As to the kind of experiment: inhibition of MG132-induced HSE-luciferase signal, confirmation, cell-based, NIH3T3, luminescence, dose retest (AID 2382).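 Further: NIH3T3 fibroblasts with HSF1-driven luciferase reporter stressed by proteasome inhibitor MG132; luminescence from HSF1-driven luciferase expression after 8 hours of MG132 stress.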 It is filed as functional.

Assay [8] deals with T2, Sentrin-specific protease 6 (Homo sapiens, UniProt Q9GZR1).
T2 sequence (Q9GZR1 whole entry): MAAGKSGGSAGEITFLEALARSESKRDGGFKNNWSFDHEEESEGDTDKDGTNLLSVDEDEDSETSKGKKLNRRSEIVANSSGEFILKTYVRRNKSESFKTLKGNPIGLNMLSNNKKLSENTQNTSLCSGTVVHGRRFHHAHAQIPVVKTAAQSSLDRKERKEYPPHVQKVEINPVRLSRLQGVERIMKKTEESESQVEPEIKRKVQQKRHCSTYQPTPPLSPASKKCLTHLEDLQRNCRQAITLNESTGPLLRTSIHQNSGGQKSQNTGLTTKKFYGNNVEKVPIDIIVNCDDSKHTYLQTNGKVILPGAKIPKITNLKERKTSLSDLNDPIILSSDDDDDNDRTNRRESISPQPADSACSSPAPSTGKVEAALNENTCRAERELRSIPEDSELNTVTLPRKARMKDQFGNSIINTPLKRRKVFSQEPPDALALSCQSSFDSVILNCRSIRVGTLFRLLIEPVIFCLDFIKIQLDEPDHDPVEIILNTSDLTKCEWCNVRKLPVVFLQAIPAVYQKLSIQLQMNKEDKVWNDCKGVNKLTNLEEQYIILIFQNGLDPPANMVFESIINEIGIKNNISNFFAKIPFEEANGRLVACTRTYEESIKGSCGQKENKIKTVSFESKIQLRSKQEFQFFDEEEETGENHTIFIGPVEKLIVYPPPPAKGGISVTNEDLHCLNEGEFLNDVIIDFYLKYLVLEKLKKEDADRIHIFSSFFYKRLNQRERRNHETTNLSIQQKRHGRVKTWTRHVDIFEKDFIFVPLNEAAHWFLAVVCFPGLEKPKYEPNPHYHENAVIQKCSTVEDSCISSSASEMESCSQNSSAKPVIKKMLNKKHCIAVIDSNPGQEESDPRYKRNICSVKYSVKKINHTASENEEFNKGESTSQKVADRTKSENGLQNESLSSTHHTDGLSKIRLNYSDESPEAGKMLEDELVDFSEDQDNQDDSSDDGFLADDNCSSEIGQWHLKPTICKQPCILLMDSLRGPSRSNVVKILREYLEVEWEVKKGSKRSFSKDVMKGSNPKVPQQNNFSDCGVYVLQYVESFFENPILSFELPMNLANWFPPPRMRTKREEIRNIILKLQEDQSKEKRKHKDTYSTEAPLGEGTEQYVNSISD
The assay is described as follows: SAR Analysis of small molecule inhibitors of Sentrin-specific protease 6 (SENP6) using a Luminescent assay. [Related pubchem assays (depositor defined):AID2582, AID2599]. It is filed as functional.

The next assay addresses T3, Caspase-3 (Homo sapiens, UniProt P42574).
T3 sequence (P42574 whole entry): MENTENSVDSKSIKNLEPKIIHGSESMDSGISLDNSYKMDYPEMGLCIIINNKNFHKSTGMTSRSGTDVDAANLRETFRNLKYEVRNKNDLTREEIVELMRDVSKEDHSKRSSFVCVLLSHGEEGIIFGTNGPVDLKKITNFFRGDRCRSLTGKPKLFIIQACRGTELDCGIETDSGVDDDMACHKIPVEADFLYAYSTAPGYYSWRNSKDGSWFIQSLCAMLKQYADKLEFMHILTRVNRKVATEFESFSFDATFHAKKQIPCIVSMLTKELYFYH
The assay is described as follows: SAR Analysis of small molecule inhibitors of Sentrin-specific proteases (SENPs) using a Caspase-3 Selectivity assay. [Related pubchem assays (depositor defined):AID2540, AID2599, AID434973, AID489001]. It is filed as functional.

Assay [9] deals with T4, Sentrin-specific protease 8 (Homo sapiens, UniProt Q96LD8).
T4 sequence (Q96LD8 whole entry): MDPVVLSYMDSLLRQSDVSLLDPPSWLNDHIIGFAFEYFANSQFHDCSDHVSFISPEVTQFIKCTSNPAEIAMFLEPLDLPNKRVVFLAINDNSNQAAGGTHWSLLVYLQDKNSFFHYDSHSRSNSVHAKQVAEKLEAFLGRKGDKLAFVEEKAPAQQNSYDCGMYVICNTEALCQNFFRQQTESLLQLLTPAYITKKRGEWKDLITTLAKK
The assay is described as follows: SENP8 protease inhibitors, SAR follow-up, biochemical, luminescence (AID 504501). In kind it is functional.

For assay [10], the target named is T5, Sentrin-specific protease 7 (Homo sapiens, UniProt Q9BQF6).
T5 sequence (Q9BQF6 whole entry): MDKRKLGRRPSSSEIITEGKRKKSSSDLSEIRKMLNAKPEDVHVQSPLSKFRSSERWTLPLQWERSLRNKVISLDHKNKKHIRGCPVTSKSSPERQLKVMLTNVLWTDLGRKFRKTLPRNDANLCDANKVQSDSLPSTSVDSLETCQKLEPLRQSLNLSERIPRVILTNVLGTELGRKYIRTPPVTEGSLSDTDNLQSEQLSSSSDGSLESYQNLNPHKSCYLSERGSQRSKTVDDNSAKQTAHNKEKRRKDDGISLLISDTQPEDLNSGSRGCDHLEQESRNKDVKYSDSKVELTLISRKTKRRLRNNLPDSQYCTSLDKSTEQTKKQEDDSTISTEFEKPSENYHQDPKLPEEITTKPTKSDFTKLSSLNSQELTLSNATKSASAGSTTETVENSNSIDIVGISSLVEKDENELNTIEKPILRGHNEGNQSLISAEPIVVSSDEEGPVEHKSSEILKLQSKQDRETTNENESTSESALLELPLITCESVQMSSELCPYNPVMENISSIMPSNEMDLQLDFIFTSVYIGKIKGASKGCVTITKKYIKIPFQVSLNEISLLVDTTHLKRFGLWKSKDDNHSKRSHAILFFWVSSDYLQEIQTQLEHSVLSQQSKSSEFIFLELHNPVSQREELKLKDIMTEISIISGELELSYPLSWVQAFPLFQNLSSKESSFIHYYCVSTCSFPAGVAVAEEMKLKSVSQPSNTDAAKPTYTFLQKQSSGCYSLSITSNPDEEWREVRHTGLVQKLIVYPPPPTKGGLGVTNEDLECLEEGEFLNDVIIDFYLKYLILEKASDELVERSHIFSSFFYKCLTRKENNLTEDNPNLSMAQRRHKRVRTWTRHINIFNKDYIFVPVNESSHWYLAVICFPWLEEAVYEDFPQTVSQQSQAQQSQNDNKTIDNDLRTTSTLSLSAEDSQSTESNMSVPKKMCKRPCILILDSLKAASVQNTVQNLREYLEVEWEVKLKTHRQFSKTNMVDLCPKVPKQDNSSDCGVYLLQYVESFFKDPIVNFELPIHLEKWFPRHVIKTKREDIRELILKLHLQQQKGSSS
The assay is described as follows: SENP7 protease inhibitors, SAR follow-up, biochemical, luminescence (AID 504497). It is filed as functional.

In assay [11] the target is T6, Corticotropin-releasing factor receptor 2/Corticotropin-releasing factor-binding protein (Homo sapiens, UniProt P24387+Q13324).
T6 sequence (Q13324 whole entry): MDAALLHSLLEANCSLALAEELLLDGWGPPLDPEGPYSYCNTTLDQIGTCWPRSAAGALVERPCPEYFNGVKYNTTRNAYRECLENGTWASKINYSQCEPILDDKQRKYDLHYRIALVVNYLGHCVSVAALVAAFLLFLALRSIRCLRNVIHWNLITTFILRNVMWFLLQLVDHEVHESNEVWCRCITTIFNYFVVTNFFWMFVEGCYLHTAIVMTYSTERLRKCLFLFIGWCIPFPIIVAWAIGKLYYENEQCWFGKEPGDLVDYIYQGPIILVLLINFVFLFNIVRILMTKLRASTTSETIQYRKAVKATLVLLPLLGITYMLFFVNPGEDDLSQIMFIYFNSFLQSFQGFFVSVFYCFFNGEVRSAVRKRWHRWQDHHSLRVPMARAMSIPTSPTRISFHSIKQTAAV
T6 sequence (P24387 whole entry): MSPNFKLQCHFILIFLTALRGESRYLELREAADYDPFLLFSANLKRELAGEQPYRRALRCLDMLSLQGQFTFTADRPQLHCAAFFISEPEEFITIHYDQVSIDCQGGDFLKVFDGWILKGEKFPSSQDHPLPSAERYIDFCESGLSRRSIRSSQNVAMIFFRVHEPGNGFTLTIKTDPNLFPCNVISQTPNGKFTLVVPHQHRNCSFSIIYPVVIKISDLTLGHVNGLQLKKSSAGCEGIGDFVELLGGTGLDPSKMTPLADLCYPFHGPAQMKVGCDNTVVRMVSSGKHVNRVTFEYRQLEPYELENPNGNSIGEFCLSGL
As to the kind of experiment: activators of CRF receptor 2 with binding protein – uHTS hits, confirmation (AID 602473). In kind it is functional. Particulars: read-out: EC50_Mean.

As to `O=C(N/N=C/c1ccc[nH]1)c1ccc(COc2cccc3cccnc23)cc1`, the AC50 (commonly the midpoint of the concentration-response curve, whichever way the signal moves) in assay [1] is 9.15 µM (active); with HEK293, 6.13 µM (active); in the assay with INS1 it was 1.05 µM (active). Moreover, the EC50 in [2] was 9.79 µM (active); in assay [4] it was 8.34 µM (active); in assay [5], > 120 µM (not active); in [7], 0.16 µM (active). Moreover, the 50% inhibitory concentration (IC50) (as a rule, the concentration needed to halve the response being measured) in assay [3] is 0.65 µM (active); in [6] it was 0.574 µM (active).
`CS(=O)(=O)c1ccc(N/N=C/c2cn(Cc3ccccc3)c3ccccc23)cc1`: the IC50 (in [8]; on Caspase-3; in assay [9]; in [10]) was > 99 µM (inactive) each time.
For `O=c1c([N+](=O)[O-])cn(Cc2ccccc2)c(=O)n1Cc1ccccc1`, in assay [1], the AC50 is 108 µM (active). In addition, the EC50 in [11] was > 53 µM (inactive).
